The values that follow come from publication PMC11149917, “Translational and Therapeutic Evaluation of RAS-GTP Inhibition by RMC-6236 in RAS-Driven Cancers” (Cancer Discovery, 2024).

Each structure is given as a SMILES string.

This data set has as its system DUSP6 mRNA in human tumors. Briefly: PK/PD model scaled to humans. The source says:
Tumor growth was modeled using the approach previously described by Simeoni and colleagues ([45]). As detailed previously, tumor volume data were collected from mice bearing either NCI-H441 or Capan-2 xenograft tumors in 28-day efficacy studies (Supplementary Table S9). Estimated intrinsic tumor growth parameters include initial tumor volume, W0, which was set to the observed initial tumor volume, and the exponential and linear growth rates constants, λ0 and λ1, which were estimated from vehicle-treated animal tumor growth. Drug-specific parameters include a measure of drug potency, k2, and a transfer rate constant, k1, which describes cell death kinetics. A tumor stasis concentration threshold (CT) was calculated as λ0/k2 and converted to a human equivalent by adjusting for species differences in blood-plasma partitioning and plasma protein binding as discussed in Supplementary Methods. Human PK parameters were predicted via multispecies allometric scaling or assigned as the preclinical average and used to simulate mean steady-state human exposure at various dose levels.
The mouse PK/PD model was scaled to humans by incorporating human-specific plasma protein binding, blood–plasma partitioning, and estimated human blood PK parameters. The tumor partitioning rate constants were held constant from the mouse model under the assumption that RMC-6236 will partition similarly from free plasma into human-derived xenografts or clinical tumor tissue. Similarly, parameters governing DUSP6 expression were kept the same and assumed to reflect a similarly sensitive tumor in humans. Human simulations were conducted for multiple clinical dose levels using mean PK parameters and assuming an average body weight of 70 kg.

In the case of `CCn1c(-c2cc(N3CCN(C)CC3)cnc2[C@H](C)OC)c2c3cc(ccc31)-c1csc(n1)C[C@H](NC(=O)[C@H]1C[C@@H]1C)C(=O)N1CCC[C@H](N1)C(=O)OCC(C)(C)C2` [RMC-6236], for the setting “Human Predictions”, the Ka was 2 h⁻¹ and the V/F was 10.83 L/kg. Besides, for the setting “daily dose of approximately 100 mg, steady state, transient”, the “estimated maximal DUSP6 suppression in human tumors” value is given as no less than 90%. Besides, where the note is “daily dose of approximately 300 mg, across the dosing interval at steady state”, the “estimated mean DUSP6 suppression in human tumors” value is listed as no less than 90%.
